A short description of data set [1]: Blood levels of salmon calcitonin after injection into duodenum, ileum or colon. It counts as in vivo. The settings on record: rat, other: injected directly into the duodenum, active components injected directly into the duodenum. The text has this: The pH-lowering agent is believed to lower the local pH (where the active agent has been released) to levels below the optimal range for many intestinal proteases. This decrease in pH reduces the proteolytic activity of the intestinal proteases, thus affording protection to the peptide from potential degradation should the peptide be present within the intestine. The activity of these proteases is diminished by the temporarily acidic environment as discussed herein. For example, sufficient acid should be provided that local intestinal pH is lowered temporarily to 5.5 or below, 4.7 or below, or 3.5 or below. The sodium bicarbonate test described below (in the section captioned “the pH-Lowering Agent”) is indicative of the required acid amount. […] The absorption enhancers of the present formulations synergistically promote peptide absorption into the blood while conditions of reduced proteolytic activity prevail. The mechanism by which the present formulations are believed to accomplish the goal of enhanced bioavailability is aided by having active components of the finished pharmaceutical product released together as simultaneously as possible.
The acid is believed to lower the local intestinal pH, where the aromatic-cationic peptide has been released, to levels below the optimal range for many intestinal proteases and other intestinal enzymes. […]

For data set [2] the following is noted: dog, in vivo. How it is done: A second series of tests will be carried out, as noted above, using beagle dogs. […] In the experiments, size 00 HPLC capsules will be filled with 758 mg of a powdered blend consisting of citric acid (643 mg), lauroyl carnitine (66 mg), talc (33 mg), salmon calcitonin (sCT) (13 mg) and aromatic-cationic peptide (2.4 mg). Half of the capsules will be coated with an enteric coating solution of L30D-55, while the remaining 50% of the capsules will not be coated. Four fasted dogs will be each given 1 uncoated capsule, and 2 weeks later they will be each given an enteric coated capsule. […] The plasma samples will be subsequently analyzed for sCT by a direct ELISA, and for aromatic-cationic peptide by HPLC-mass spectrometry performed as set forth in Wan, H. and Desiderio, D., Quantitation of dmt-DALDA in ovine plasma by on-line liquid chromatography/quadrapole time-of-flight mass spectrometry, Rapid Communications in Mass Spectrometry, 2003; 17, 538-546, the contents of which are incorporated herein by reference.
The results will be summarized as plasma peptide concentration normalized to a 1 mg dose as a function of time relative to the average Tmax, (i.e., the time at which the maximum amount of peptide is detected). The results are expected to indicate that both peptides, i.e., sCT and aromatic-cationic peptide, are detected in dogs given uncoated or enteric coated capsules.

The Tmax is the time from dosing to the highest level.

On to `CC(C)C[C@H](NC(=O)[C@H](CCCCN)NC(=O)CNC(=O)[C@H](CC(C)C)NC(=O)[C@@H](NC(=O)[C@@H]1CSSC[C@H](N)C(=O)N[C@@H](CO)C(=O)N[C@@H](CC(N)=O)C(=O)N[C@@H](CC(C)C)C(=O)N[C@@H](CO)C(=O)N[C@@H]([C@@H](C)O)C(=O)N1)C(C)C)C(=O)N[C@@H](CO)C(=O)N[C@@H](CCC(N)=O)C(=O)N[C@@H](CCC(=O)O)C(=O)N[C@@H](CC(C)C)C(=O)N[C@@H](Cc1c[nH]cn1)C(=O)N[C@@H](CCCCN)C(=O)N[C@@H](CC(C)C)C(=O)N[C@@H](CCC(N)=O)C(=O)N[C@H](C(=O)N[C@@H](Cc1ccc(O)cc1)C(=O)N1CCC[C@H]1C(=O)N[C@@H](CCCNC(=N)N)C(=O)N[C@H](C(=O)N[C@@H](CC(N)=O)C(=O)N[C@H](C(=O)NCC(=O)N[C@@H](CO)C(=O)NCC(=O)N[C@H](C(=O)N1CCC[C@H]1C(N)=O)[C@@H](C)O)[C@@H](C)O)[C@@H](C)O)[C@@H](C)O` [salmon calcitonin], for which the Tmax in data set [1] lay in the range of 5 to 15 min. In addition, the “amount detected in plasma, enteric coated vs non-coated capsules” value in data set [2] is “nearly eight times”.

The values above are taken from US20150118315A1, “AROMATIC-CATIONIC PEPTIDES AND USES OF SAME” (Stealth Peptides International, Inc., priority 2011, published 2015).
